Experimental data reported in ChEMBL document CHEMBL1148283 (J Med Chem, 2004).

Key:
[1] = molecular target: Nitric oxide synthase, inducible (Homo sapiens, UniProt P35228)
[2] = molecular target: T1, Nitric oxide synthase 1 (Homo sapiens, UniProt P29475)
Description: In vitro inhibition of human neuronal nitric oxide synthase.

[3] = molecular target: T1, Nitric oxide synthase 1; test: Percentage inhibition of human neuronal nitric oxide synthase (nNOS) at 100 uM
[4] = molecular target: T2, Nitric oxide synthase 3 (Homo sapiens, UniProt P29474); test: In vitro inhibition of human endothelial nitric oxide synthase.
T2 sequence (P29474 whole entry): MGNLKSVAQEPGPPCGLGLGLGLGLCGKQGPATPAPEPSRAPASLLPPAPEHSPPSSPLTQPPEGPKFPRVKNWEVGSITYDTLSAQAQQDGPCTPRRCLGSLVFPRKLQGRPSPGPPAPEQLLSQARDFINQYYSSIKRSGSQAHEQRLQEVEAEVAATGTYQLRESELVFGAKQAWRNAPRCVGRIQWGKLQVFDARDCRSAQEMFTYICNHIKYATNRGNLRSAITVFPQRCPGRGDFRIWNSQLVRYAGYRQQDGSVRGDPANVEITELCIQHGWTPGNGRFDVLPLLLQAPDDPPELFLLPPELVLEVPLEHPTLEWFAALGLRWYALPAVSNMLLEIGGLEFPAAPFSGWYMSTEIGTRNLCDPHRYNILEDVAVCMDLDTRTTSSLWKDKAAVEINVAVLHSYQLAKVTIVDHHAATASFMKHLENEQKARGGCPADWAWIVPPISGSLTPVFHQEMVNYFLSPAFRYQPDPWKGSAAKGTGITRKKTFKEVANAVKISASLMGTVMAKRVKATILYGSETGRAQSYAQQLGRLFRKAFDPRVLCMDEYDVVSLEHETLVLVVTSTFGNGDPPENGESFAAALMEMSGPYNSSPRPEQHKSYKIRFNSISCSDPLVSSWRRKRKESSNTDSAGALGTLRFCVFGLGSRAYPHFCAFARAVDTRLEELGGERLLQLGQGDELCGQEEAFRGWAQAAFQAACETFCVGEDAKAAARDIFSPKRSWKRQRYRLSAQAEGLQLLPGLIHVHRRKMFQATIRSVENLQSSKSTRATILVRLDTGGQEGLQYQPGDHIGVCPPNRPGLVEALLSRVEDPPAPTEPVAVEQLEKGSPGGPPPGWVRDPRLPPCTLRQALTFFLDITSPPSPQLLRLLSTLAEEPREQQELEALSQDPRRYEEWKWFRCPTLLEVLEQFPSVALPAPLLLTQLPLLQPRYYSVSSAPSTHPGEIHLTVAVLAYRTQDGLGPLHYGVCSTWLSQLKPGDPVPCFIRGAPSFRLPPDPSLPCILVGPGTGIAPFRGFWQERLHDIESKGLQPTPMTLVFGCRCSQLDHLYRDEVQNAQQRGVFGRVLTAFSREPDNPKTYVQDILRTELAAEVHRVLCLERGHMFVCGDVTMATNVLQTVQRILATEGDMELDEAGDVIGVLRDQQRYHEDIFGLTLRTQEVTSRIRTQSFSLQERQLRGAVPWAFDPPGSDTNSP

[5] = molecular target: T3, Nitric oxide synthase 3 (Homo sapiens) (UniProt P29474); test: Percentage inhibition of human endothelial nitric oxide synthase (eNOS) at 100 uM
T3 sequence (whole entry): T2 sequence (P29474 whole entry)

T1 sequence (P29475 whole entry): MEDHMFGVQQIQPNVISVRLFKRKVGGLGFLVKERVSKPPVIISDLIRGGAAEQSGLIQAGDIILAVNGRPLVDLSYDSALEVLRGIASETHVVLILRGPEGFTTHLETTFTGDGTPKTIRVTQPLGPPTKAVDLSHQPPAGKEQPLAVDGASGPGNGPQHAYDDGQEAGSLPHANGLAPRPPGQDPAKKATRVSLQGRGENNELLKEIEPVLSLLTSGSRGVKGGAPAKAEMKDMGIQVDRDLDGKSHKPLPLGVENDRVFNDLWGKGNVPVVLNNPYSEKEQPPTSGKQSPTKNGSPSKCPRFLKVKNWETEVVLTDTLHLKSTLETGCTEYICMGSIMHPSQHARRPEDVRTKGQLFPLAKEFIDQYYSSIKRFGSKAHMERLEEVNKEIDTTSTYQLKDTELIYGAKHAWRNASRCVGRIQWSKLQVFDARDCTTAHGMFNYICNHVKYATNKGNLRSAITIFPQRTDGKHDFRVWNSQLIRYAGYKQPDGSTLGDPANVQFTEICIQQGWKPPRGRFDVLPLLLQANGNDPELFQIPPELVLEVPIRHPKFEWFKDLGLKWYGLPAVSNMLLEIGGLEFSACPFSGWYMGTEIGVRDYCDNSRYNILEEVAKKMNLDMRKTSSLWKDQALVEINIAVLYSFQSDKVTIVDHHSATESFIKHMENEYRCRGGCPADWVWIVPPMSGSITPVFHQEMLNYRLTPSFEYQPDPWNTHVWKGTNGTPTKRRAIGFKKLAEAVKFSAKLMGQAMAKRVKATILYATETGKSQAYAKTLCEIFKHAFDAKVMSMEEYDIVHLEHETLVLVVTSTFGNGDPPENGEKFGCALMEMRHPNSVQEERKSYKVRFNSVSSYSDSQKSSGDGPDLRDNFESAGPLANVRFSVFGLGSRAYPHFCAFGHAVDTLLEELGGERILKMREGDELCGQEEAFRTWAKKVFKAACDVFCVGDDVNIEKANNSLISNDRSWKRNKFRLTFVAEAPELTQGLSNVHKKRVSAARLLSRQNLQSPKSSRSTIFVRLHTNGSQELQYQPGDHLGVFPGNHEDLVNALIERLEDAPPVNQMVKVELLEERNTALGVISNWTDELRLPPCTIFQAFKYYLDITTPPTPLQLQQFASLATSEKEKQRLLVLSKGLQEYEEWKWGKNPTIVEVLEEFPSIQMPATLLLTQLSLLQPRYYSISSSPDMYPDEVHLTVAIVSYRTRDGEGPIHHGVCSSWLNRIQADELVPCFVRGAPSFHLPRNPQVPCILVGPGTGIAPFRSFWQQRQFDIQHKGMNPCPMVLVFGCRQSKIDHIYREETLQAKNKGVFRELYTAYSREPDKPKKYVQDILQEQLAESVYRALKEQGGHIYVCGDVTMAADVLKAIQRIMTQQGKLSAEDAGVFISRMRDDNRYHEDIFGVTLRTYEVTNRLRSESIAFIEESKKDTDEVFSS
Chain of Nitric oxide synthase, inducible (P35228 whole entry): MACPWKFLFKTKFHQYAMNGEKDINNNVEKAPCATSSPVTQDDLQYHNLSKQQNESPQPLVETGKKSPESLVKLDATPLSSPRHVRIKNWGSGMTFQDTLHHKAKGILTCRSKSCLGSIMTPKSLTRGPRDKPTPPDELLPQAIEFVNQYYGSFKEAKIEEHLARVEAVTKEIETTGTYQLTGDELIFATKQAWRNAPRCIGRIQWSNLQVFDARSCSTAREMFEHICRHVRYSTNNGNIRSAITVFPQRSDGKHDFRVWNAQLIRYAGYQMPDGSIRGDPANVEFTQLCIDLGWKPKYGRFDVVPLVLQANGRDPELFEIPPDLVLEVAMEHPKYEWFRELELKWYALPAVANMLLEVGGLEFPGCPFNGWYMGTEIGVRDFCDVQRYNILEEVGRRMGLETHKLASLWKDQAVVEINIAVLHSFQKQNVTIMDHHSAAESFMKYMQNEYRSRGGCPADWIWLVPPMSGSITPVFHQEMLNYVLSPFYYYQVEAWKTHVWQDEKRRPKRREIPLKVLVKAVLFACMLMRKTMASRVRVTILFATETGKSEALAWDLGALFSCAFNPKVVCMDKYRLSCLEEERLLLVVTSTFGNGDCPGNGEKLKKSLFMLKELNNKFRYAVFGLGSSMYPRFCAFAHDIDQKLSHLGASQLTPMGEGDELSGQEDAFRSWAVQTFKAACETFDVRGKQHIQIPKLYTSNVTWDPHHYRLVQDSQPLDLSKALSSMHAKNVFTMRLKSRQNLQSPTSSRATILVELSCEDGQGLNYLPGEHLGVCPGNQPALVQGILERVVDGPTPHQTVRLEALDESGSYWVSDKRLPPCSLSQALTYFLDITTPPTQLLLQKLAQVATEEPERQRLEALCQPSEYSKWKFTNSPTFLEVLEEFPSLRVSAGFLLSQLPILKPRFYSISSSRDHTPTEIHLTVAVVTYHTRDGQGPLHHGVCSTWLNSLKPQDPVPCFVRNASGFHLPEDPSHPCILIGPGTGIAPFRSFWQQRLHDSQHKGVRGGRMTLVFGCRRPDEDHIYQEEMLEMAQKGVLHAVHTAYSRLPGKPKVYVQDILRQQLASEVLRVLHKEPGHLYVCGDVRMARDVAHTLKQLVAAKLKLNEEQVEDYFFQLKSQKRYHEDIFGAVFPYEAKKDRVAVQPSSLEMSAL

SMILES	IC50 [1] [µM]	IC50 [2] [µM]	inhibition [3] [%]	IC50 [4] [µM]	inhibition [5] [%]
CC(=N)NCCSCC[C@H](N)C(=O)O [GW-274150]	0.07	18		34	
N#Cc1ccc(C(=O)N2CCC3(CC2)N=C(N)c2c(F)ccc(F)c2N3)cn1					< 20
CC(=N)NCCCC[C@H](N)C(=O)O [L-NIL]		1.6			
CCc1ccnc(N)c1		2.2			
CCCC1CCCCCC(N)=N1 (stereo not given)	0.026	0.24		4.8	
Cc1cc(C)nc(N)c1	0.045	0.098		0.17	
COc1ccnc(N)c1	1	1		1	
CNc1cc(C)cc(C)n1	86	> 100	< 20	30	

Second part, the molecule after the results:

IC50 [1] [µM]	IC50 [2] [µM]	inhibition [3] [%]	IC50 [4] [µM]	inhibition [5] [%]	SMILES
13	> 100	< 20	> 100	< 20	CCOC(=O)N1CCC(Nc2ccccn2)CC1
				< 20	COc1ccnc(NC2CCN(C(=O)c3ccc(C#N)cc3)CC2)c1
3.8	96		> 100	< 20	CCOC(=O)N1CCC(Nc2cc(OCC)ccn2)CC1
0.053	7.8		36		COc1ccnc(NC2CCN(C(=O)c3ccc(Cl)cc3)CC2)c1
0.53	28		100		COc1ccnc(NC2CCN(C(=O)c3ccccc3)CC2)c1
